According to US20230248726A1, “PHARMACEUTICAL COMPOSITION AND APPLICATION THEREOF” (SHANGHAI RAISING PHARMACEUTICAL CO., LTD., priority 2020, published 2023):
Where a name gives a salt, the structure may show the parent alone.

System: APP/PS1/Tau mice
Experiment: Morris water maze test
Assay type: in vivo
Settings: for Time in the target quadrant / Times of crossing over the platform / latent period: APP/PS1/Tau mice, intragastric daily for 8 weeks, testing Day 6, n = 10, BTMP 200 mg/kg, VB1 200 mg/kg, donepezil hydrochloride 1.5 mg/kg, ½BTMP 100 mg/kg; for spatial memory and learning ability of the AD mice (result in words): Morris water maze, compared with the model group
Source text: In water, rodents have a strong motivation to escape from the water environment, and can escape from the water environment in the fastest and most direct way. The process of learning to escape from the water environment reflects the learning ability of animals. Spatial positioning according to the surrounding environment and swimming to a safe place in the water (such as a platform) on purpose can reflect the spatial learning and memory ability of animals.
The test animals were male APP/PS1/Tau mice and C57BL/6 wild type mice. The mice were 8 months old, weighing […], and purchased from The Jackson laboratory.
App/PS1/Tau mice are APP/PS1/tau triple transgenic Alzheimer's disease (3×Tg-AD) model mice, whose AO deposition occurs several months earlier than the pathological change of the tau protein, and can more realistically simulate the clinical process and pathological changes of Alzheimer's disease.
Preparation of a 10 mg/ml vitamin B1 solution (dosage: 200 mg/kg): 500 mg of vitamin B1 was weighed, and 0.7% m/v CMC-Na was added to reach 50 ml, to obtain a 10 mg/ml solution.
Preparation of a 10 mg/ml BTMP suspension (dosage: 200 mg/kg): 500 mg of BTMP was weighed, and 0.7% m/v CMC-Na was added to reach 50 ml, to obtain a 10 mg/ml BTMP suspension.
Preparation of a 0.075 mg/ml donepezil hydrochloride suspension (dosage: 1.5 mg/kg): one donepezil hydrochloride tablet (containing 5 mg donepezil hydrochloride) was ground, and 0.7% m/v CMC-Na was added to reach 66.67 ml, to obtain a 0.075 mg/ml donepezil hydrochloride suspension.
(§1) Preparation of a 10 mg/ml BTMP suspension+0.075 mg/ml donepezil hydrochloride suspension (dosage: 200 mg/kg BTMP suspension+1.5 mg/kg donepezil hydrochloride suspension): a 20 mg/ml BTMP suspension and a 0.15 mg/ml donepezil hydrochloride suspension were respectively prepared, and equal volumes were evenly mixed before administration, to obtain a 10 mg/ml BTMP suspension+0.075 mg/ml donepezil hydrochloride suspension.
as §1, with “5” for “10”, “100” for “200”, “10” for “20”
The mice in the blank control group, the model group and the test groups were intragastrically administered according to the dosage/specification in 2.2. for 8 weeks, and the water maze training and testing were started in the last week of the administration. The water maze training and testing lasted for 6 days, with 5 days of training and 1 day of testing. In addition, during the water maze training and testing period (6 days in total), conditions such as the indoor lighting etc. were kept constant, and the room was kept quiet, so as to eliminate the interference of the environment and personnel.
(1) Pre-test preparation: an appropriate amount of water was placed in a water maze pool with water temperature being kept at 22±3° C., a platform was placed at a fixed position (the target quadrant) and 1 cm below the water surface, and titanium dioxide was added until water color was white, and the platform could not be seen clearly.
(2) Training period (Day 1 to Day 5): each mouse was placed on the platform for 15 s (to increase the mouse's sense of security on the platform) prior to the first quadrant training on each day, and then the mouse was placed in the quadrant where the platform located in the pool (head towards the wall), and a swimming time of 60 s was set. If it found the platform within 60 s and stayed for 5 s, it was considered as a success in finding the platform.
After the first quadrant training, the training in the remaining three quadrants was performed in turn, wherein it is not necessary to place the mice on the platform and hold for 15 s before training.

SMILES | Time in the target quadrant | Times of crossing over the platform | latent period | spatial memory and learning ability of the AD mice (result in words)
C/C(=C(\CCOP(=O)(O)O)SC(=O)c1ccccc1)N(C=O)Cc1cnc(C)nc1N [BTMP, S-2-[[(2-methyl-4-amino-5-pyrimidinyl)methyl]formylamino]-5-phosphonooxy-2,3-pentenyl-3-mercaptobenzoate] | 14.96 ± 1.50 s | 2.10 ± 0.74 | 26.10 ± 1.85 s | significantly improved
COc1cc2c(cc1OC)C(=O)C(CC1CCN(Cc3ccccc3)CC1)C2 (stereo not drawn) [Donepezil hydrochloride, donepezil hydrochloride] | 14.44 ± 1.11 s | 1.80 ± 0.79 | 27.80 ± 2.04 s | significantly improved
Cc1ncc(C[n+]2csc(CCO)c2C)c(N)n1 [VB1, vitamin B1] | 11.87 ± 1.17^*#& s | 1.00 ± 0.67^*& | 35.10 ± 4.09^*#& s | did not significantly improve
